Patent publication US20160271209A1, “ANTIBACTERIAL COMPOSITION” (ECO FRIENDLY INSTITUTE LIMITED., priority 2012, published 2016)

Key:
[1] = test system: Porphyromonas gingivalis ATCC 33277 strain; experiment: Antibacterial activity against Porphyromonas gingivalis (1): 1 minute contact, colony count; type: cell-based
Procedure: The Porphyromonas gingivalis ATCC 33277 strain, a causative bacterium of periodontal disease, was cultured to the logarithmic phase in Enriched Tryptic Soy Broth (e-TSB). The culture medium was diluted with a citrate buffer (pH 4.5) containing 0.8% NaCl to adjust the number of bacteria (10^6 CFU/mL). Test solutions were prepared by dilution with sterilized purified water so as to contain the 5-fold concentrate of Prunus mume extract (3 mg/mL, 15 mg/mL as the extract before concentration), nisin (150 μg/mL), or nisin (150 μg/mL)+5-fold concentrate of Prunus mume extract (3 mg/mL, 15 mg/mL as the extract before concentration). The diluted culture medium (100 μL) was added to each test solution (5 mL). After contact of the bacterium with the test solution for 1 minute at room temperature, the mixture (100 μL) was added to and mixed with the e-TSB medium (5 mL), and the mixture (100 μL) was immediately plated on a blood agar medium under an anaerobic condition. The bacterium was cultured for 5 days under an anaerobic condition, and then the number of the colonies formed on the plate was counted. The results were as shown in Table 1 mentioned below and FIG. 1. In Table 1, “CFU” means colony-forming unit (the same shall apply to the following descriptions).

[2] = test system: Porphyromonas gingivalis W83 strain; experiment: Antibacterial activity against Porphyromonas gingivalis (2): growth inhibition effect by turbidity at 600 nm; type: cell-based; details: FIG. 2, 48 hours culture
Procedure: The Porphyromonas gingivalis W83 strain, a causative bacterium of periodontal disease, was cultured to the logarithmic phase in the brain heart infusion medium containing hemin (5 mg/L) and metidione (1 mg/L). The culture medium was diluted with a citrate buffer containing 0.8% NaCl to adjust the number of bacteria (10^6 CFU/mL). Test solutions were prepared by dilution with sterilized purified water so as to contain the 5-fold concentrate of Prunus mume extract (10 mg/mL, 50 mg/mL as the extract before concentration), nisin (20 μg/mL), or the 5-fold concentrate of Prunus mume extract (10 mg/mL, 50 mg/mL as the extract before concentration)+nisin ([…]), and serially diluted 2-fold on a 96-well plate. To each well (containing 50 μL of test solution), the brain heart infusion medium (140 μL) containing hemin (5 mg/L) and metidione (1 mg/L) and the cell suspension (10 μL) were added. After culture for 48 hours, turbidity of the culture was measured at 600 nm. For evaluation, growth inhibition effect (%) was calculated according to the equation: Growth inhibition effect (%)=(1−(Turbidity observed with test solution)/(Turbidity observed with sterilized water))×100.

[3] = test system: Escherichia coli NBRC 3301 strain; experiment: Antibacterial activity against Escherichia coli (1): contact for days, colony count; type: cell-based; details: Table 2, nisin 10 μg/mL
Procedure: The Escherichia coli NBRC 3301 strain, which is a Gram-negative bacterium, was cultured to the logarithmic phase in Tryptic Soy Broth (TSB). The culture medium was diluted with sterilized purified water to adjust the number of bacteria (10^3 to 10^4 CFU/mL). Test solutions were prepared by dilution with sterilized purified water so as to contain nisin (10 μg/mL), the 5-fold concentrate of Prunus mume extract (3 mg/mL, 15 mg/mL as the extract before concentration), or nisin (10 μg/mL)+5-fold concentrate of Prunus mume extract (3 mg/mL, 15 mg/mL as the extract before concentration). The diluted culture medium (10 μL) was added to each test solution (1 mL). After contact of the bacterium with the test solution at room temperature for a predetermined number of days (0 to 7 days), the mixture (100 μL) was plated on TBS agar medium. The bacterium was cultured for 48 hours, and then the number of the colonies formed on the plate was counted. The results are shown in Tables 2 and 3 mentioned below and FIGS. 3 and 4. In Tables 2 and 3, “D+n” means the number of days (n days) for the contact of the diluted culture medium and the test solution (the same shall apply to the following descriptions).

[4] = test system: Gram-positive bacteria including acetic acid bacteria; details: background statement; cited from earlier work

nisin A
antibacterial activity against Porphyromonas gingivalis (in words) ([1]; Example 1, Table 1 and FIG. 1): did not show any antibacterial activity at all | Number of bacteria, After contact ([1]; after contact for 1 minute at room temperature, nisin 150 μg/mL, Prunus mume extract 3 mg/mL (5-fold concentrate)): 1.0 × 10^6 CFU/mL | Number of bacteria, Before contact ([1]; before contact, nisin 150 μg/mL, Prunus mume extract 3 mg/mL (5-fold concentrate)): 1.0 × 10^6 CFU/mL | growth inhibition effect (in words) ([2]; 2-fold serial dilution, overall): extremely low | growth inhibition effect (in words) ([2]; at the 1/32 concentration (32-fold dilution)): did not show any growth inhibition effect at all | Number of bacteria, D + 0 ([3]; 0 days contact): 4,540 CFU/mL | Number of bacteria, D + 1 ([3]; 1 day contact): 1,740 CFU/mL | Number of bacteria, D + 3 ([3]; 3 days contact): 1,430 CFU/mL | Number of bacteria, D + 7 ([3]; 7 days contact): 290 CFU/mL | concentration showing growth-suppressing effect [4]: about 1 ppb
